3 molecules from PMC9874818 (Archiv Der Pharmazie, 2022) can be followed below.

In general, EC50 refers to the concentration giving half of the maximal effect. A word on the inhibition: it is the relative decrease from the control value, in per cent.

Starred links: 1 amine or outer side, 2 acyl side, 3 side chain; linkers in the order of their positions; H or OH if unused. Residues, ends and D or L forms follow the SMILES beside them. CO = O=C([*:1])[*:2]

The test system of the assay is SARS‐CoV‐2 spike (delta/omicron variant) pseudotyped particle. Put plainly: microbe, parasite or virus in culture. As to conditions: for EC50: Severe acute respiratory syndrome coronavirus 2, A549-hACE2-TMPRSS2, read-out: EC50 SARS-CoV-2 entry inhibition. It is filed as cell-based.
[1] abbreviates: Severe acute respiratory syndrome coronavirus 2, A549-hACE2-TMPRSS2, read-out: SARS-CoV-2 viral entry inhibition.

For `CN1C2CCC1CC(OC(c1ccc(F)cc1)c1ccc(F)cc1)C2` (stereo not shown) [AHN 1‐055, difluorobenztropine], the EC50 was over 50 µM.
As for `CC(C)[C@H](NC(=O)[C@H](CCCNC(=N)N)NC(=O)N[C@@H](Cc1ccccc1)C(=O)O)C(=O)N[C@H](C=O)CCCNC(=N)N` [antipain, L‐Phe‐CO‐L‐Arg‐L‐Val‐L‐Arg‐H] ({Phe-CO}-Arg-Val-Arg-aldehyde), under setting [1], the inhibition at 100 µM is 81%.
For `CN(C)C(=O)COC(=O)Cc1ccc(OC(=O)c2ccc(NC(=N)N)cc2)cc1` [camostat], the EC50 was found to be 0.98 µM. Besides, the inhibition at 50 µM under setting [1] worked out at 97%.
